This is an account of results in patent publication US7622582B2, “Derivatives of 1-phenyl-benzofuro[3,2]pyridin-2(1H)-one” (Tibotec BVBA, priority 2004, dated 2009).

This test deals with HIV. The test is described as follows: Cellular assay: anti-viral activity in HIV-infected MT4 cells (MTT cell viability). The format is cell-based. Particulars: Human immunodeficiency virus 1, 120 h, five days incubation, MTT readout, negative logarithm of EC50 (protection of 50% of cells from cytopathogenic effect). The protocol: The compounds of the present invention were examined for anti-viral activity in a cellular assay, which was performed according to the following procedure.
HIV- or mock-infected MT4 cells were incubated for five days in the presence of various concentrations of the inhibitor. At the end of the incubation period, the replicating virus in the control cultures has killed all HIV-infected cells in the absence of any inhibitor. Cell viability was determined by measuring the concentration of MTT, a yellow, water soluble tetrazolium dye that is converted to a purple, water insoluble formazan in the mitochondria of living cells only. Upon solubilization of the resulting formazan crystals with isopropanol, the absorbance of the solution was monitored at 540 nm. The values correlate directly to the number of living cells remaining in the culture at the completion of the five day incubation. The inhibitory activity of the compound was monitored on the virus-infected cells and was expressed as EC50 and EC90. These values represent the amount of the compound required to protect 50% and 90%, respectively, of the cells from the cytopathogenic effect of the virus. The toxicity of the compound was measured on the mock-infected cells and was expressed as CC50, which represents the concentration of compound required to inhibit the growth of the cells by 50%. The selectivity index (SI) (ratio CC50/EC50) is an indication of the selectivity of the anti-HIV activity of the inhibitor. Wherever results are reported as e.g. pEC50 or pCC50 values, the result is expressed as the negative logarithm of the result expressed as EC50 or CC50 respectively.
Table 2 lists the pEC50 values obtained in this test for a number of compounds of the invention.
On the technique in general: Cytopathic effects are the visible damage that an infection or toxin causes in cultured cells.
For orientation: EC50 means the concentration needed to bring the measured effect to its halfway point. A low value points to a more potent agent. `CC(=O)c1ccc(-n2c(=O)c(C)c(C#N)c3oc4ccccc4c32)cc1` [Compound 1, 1-(4-Acetyl-phenyl)-3-methyl-2-oxo-1,2-dihydro-benzo[4,5]furo[3,2-b]pyridine-4-carbonitrile] gave an EC50 of 2510 nM.
`Cc1c(C#N)c(=O)n(-c2ccc([N+](=O)[O-])cc2)c2c1oc1cccnc12` [Compound 3, 4-Methyl-1-(4-nitrophenyl)-2-oxo-1,2-dihydro-furo[3,2-b;4,5-b′]dipyridine-3-carbonitrile] had a half-maximal effective concentration (EC50) of 1580 nM.
`COc1ccc2c(c1)oc1c(C)c(C#N)c(=O)n(-c3ccc([N+](=O)[O-])cc3)c12` [Compound 5, 7-Methoxy-4-methyl-1-(4-nitrophenyl)-2-oxo-1,2-dihydro-benzo[4,5]furo[3,2-b]-pyridine-3-carbonitrile] gave an EC50 of 398 nM.
Turning to `Cc1c(C#N)c(=O)n(-c2ccc([N+](=O)[O-])cc2)c2c1oc1cc(O)ccc12` [Compound 6, 7-Hydroxy-4-methyl-1-(4-nitrophenyl)-2-oxo-1,2-dihydro-benzo[4,5]furo[3,2-b]-pyridine-3-carbonitrile], it took 3160 nM to reach a half-maximal effect (EC50).
